From patent publication US8399378B2, “Use of neonicotinoids in pest control” (Syngenta Crop Protection LLC, priority 1998, dated 2013)

Assays:
Assay type in all cases: in vivo
Nilaparvata lugens [1] = test: Rice plant spray test, action against Nilaparvata lugens; conditions: 20° C, 21 days; for control (percentage reduction in population, % action): infected, then spray 400 ppm; for control level: plot (b) conventional rice plants, 400 ppm compound
Method: (§1) Rice plants on a plot (a) expressing the δ-endotoxin CryIA(b) and conventional rice plants on a plot (b) are infected with Nilaparvata lugens, subsequently sprayed with a spray mixture comprising 400 ppm thiamethoxam. Immediately afterwards, plot (b) is treated with an emulsion spray mixture comprising 400 ppm of the δ-endotoxin CryIA(b). The seedlings of plot (a) and (b) are then incubated at 20° C. The test is evaluated after 21 days.
(§2) The percentage reduction in population (% action) is determined by comparing the number of dead pests on the plants of plot (a) with that on the plants of plot (b).
as §1, with “CryIA(c)” for “CryIA(b)”, “CryIA(c).” for “CryIA(b).”

Nilaparvata lugens [2] = test: Rice plant pot test, action against Nilaparvata lugens (systemic); conditions: 6 days; for control (percentage reduction in population, % action): placed in aqueous emulsion with 400 ppm compound; for control level: pot (B) conventional rice plants
Method: (§3) Rice plants expressing the δ-endotoxin CryIA(b) are planted in a in pot (A) and conventional rice plants are planted in a pot (B). Pot (A) is placed in an aqueous emulsion containing 400 ppm thiamethoxam, whereas plot (B) is place in a pot containing 400 ppm thiamethoxam and 400 ppm of the δ-endotoxin CryIA(b). The plants are subsequently infected with Nilaparvata lugens larvae of the second and third stage. The test is evaluated after 6 days.
The percentage reduction in population (% action) is determined by comparing the number of dead pests on the plants of pot (A) with that on the plants of pot (B).
as §3, with “CryIA(c)” for “CryIA(b)”, “CryIA(c).” for “CryIA(b).”

Spodoptera littoralis [3] = test: Spray test on young cotton plants, action against Spodoptera littoralis larvae
Excerpt: (§4) Young transgenic cotton plants which express the δ-endotoxin CryIIIA are sprayed with an aqueous emulsion spray mixture comprising 100, 50, 10, 5, 1 ppm of imidacloprid respectively. After the spray coating has dried on, the cotton plants are populated with 10 adult Anthonomus grandis, 10 Spodoptera littoralis larvae or 10 Heliothis virescens larvae respectively and introduced into a plastic container. Evaluation takes place 3 to 10 days later.
as §4, with “thiamethoxam” for “imidacloprid”
as §4, with “Ti-435” for “imidacloprid”
as §4, with “CryIa(c)” for “CryIIIA”, “Ti-435” for “imidacloprid”
as §4, with “CryIa(c)” for “CryIIIA”, “thiamethoxam” for “imidacloprid”
as §4, with “CryIa(c)” for “CryIIIA”

Heliothis virescens = test: Spray test on young cotton plants, action against Heliothis virescens larvae; conditions: spray 100, 50, 10, 5, 1 ppm, evaluation 3 to 10 days
Excerpt: as §4
as §4, with “thiamethoxam” for “imidacloprid”
as §4, with “Ti-435” for “imidacloprid”, “later. […]” for “later.”

Spodoptera littoralis [4] = test: Spray test on young cotton plants, action against Spodoptera littoralis larvae; remark: listed apart in the source
[5] = system: Frankliniella occidentalis; test: Cotton seedling spray test, action against Frankliniella occidentalis; conditions: 20° C, 3 and 6 days; for control (percentage reduction in population, % action): spray 400 ppm; for control level: plot (b) conventional cotton seedlings, 400 ppm compound
Method: (§5) Cotton seedlings expressing the δ-endotoxin CryIIIa on a plot (a) and conventional cotton seedlings on a plot (b) are infected with Frankliniella occidentalis and subsequently sprayed with a spray mixture comprising 400 ppm thiamethoxam. Immediately afterwards, plot (b) is treated with an emulsion spray mixture comprising 400 ppm of the δ-endotoxin CryIIIa. The seedlings of plot (a) and (b) are then incubated at 20° C. The test is evaluated after 3 and 6 days.
as §2
as §5, with “CryIa(c)” for “CryIIIa”, “CryIa(c).” for “CryIIIa.”

CN1COCN(Cc2cnc(Cl)s2)/C1=N\[N+](=O)[O-] [thiamethoxam, 5-(2-Chlorthiazol-5-ylmethyl)-3-methyl-4-nitroimino-perhydro-1,3,5-oxadiazin]
control (percentage reduction in population, % action) (Nilaparvata lugens [1]; plot (a) rice plants expressing δ-endotoxin CryIA(b)): Improved control
control (percentage reduction in population, % action) (Nilaparvata lugens [1]; plot (a) rice plants expressing δ-endotoxin CryIA(c)): Improved control
control level (Nilaparvata lugens [1]; then 400 ppm δ-endotoxin CryIA(b)): ≤ 60%
control level (Nilaparvata lugens [1]; then 400 ppm δ-endotoxin CryIA(c)): ≤ 0%
control (percentage reduction in population, % action) (Nilaparvata lugens [2]; pot (A) rice plants expressing δ-endotoxin CryIa(b)): Improved control
control (percentage reduction in population, % action) (Nilaparvata lugens [2]; pot (A) rice plants expressing δ-endotoxin CryIa(c)): Improved control
control level (Nilaparvata lugens [2]; 400 ppm compound and 400 ppm δ-endotoxin CryIA(b)): ≤ 60%
control level (Nilaparvata lugens [2]; 400 ppm compound and 400 ppm δ-endotoxin CryIA(c)): ≤ 60%
control of the tested insects (percentage reduction in population or feeding damage, % action) (Spodoptera littoralis [3]; non-transgenic cotton treated with compound and conventional CryIIIA-toxin, each 100, 50, 10, 5, 1 ppm, comparison arm for CryIa(c) cotton): insufficient
control of the tested insects (percentage reduction in population or feeding damage, % action) (Spodoptera littoralis [3]; transgenic cotton expressing δ-endotoxin CryIa(c), spray 100, 50, 10, 5, 1 ppm, evaluation 3 to 10 days): superior
control of the tested insects (percentage reduction in population or feeding damage, % action) (Heliothis virescens; transgenic cotton expressing δ-endotoxin CryIIIA, compared with non-transgenic plant): superior
control of the tested insects (percentage reduction in population or feeding damage, % action) (Heliothis virescens; transgenic cotton expressing δ-endotoxin CryIa(c)): superior
control of the tested insects (percentage reduction in population or feeding damage, % action) (Spodoptera littoralis [4]; non-transgenic cotton treated with compound and conventional CryIIIA-toxin, each 100, 50, 10, 5, 1 ppm, comparison arm for CryIIIA cotton): insufficient
control of the tested insects (percentage reduction in population or feeding damage, % action) (Spodoptera littoralis [4]; transgenic cotton expressing δ-endotoxin CryIIIA, spray 100, 50, 10, 5, 1 ppm, evaluation 3 to 10 days, compared with non-transgenic plant): superior
control (percentage reduction in population, % action) ([5]; plot (a) cotton seedlings expressing δ-endotoxin CryIIIa): Improved control
control (percentage reduction in population, % action) ([5]; plot (a) cotton seedlings expressing δ-endotoxin CryIa(c)): Improved control
control level ([5]; then 400 ppm δ-endotoxin CryIIIa): ≤ 60%
control level ([5]; then 400 ppm δ-endotoxin CryIa(c)): ≤ 60%
